39 compounds from ChEMBL document CHEMBL2434831, “Imidazo[4,5-b]pyridine inhibitors of B-Raf kinase” (Bioorg Med Chem Lett, 2013) can be followed below.

For series [1], the target named is T1, Serine/threonine-protein kinase B-raf (Homo sapiens, UniProt P15056, V600E). In words: Inhibition of B-Raf V600E mutant in human Malme-3M cells assessed as basal ERK phosphorylation. The class given is cell-based.
Series [2] concerns the target T1, Serine/threonine-protein kinase B-raf. In words: Inhibition of full length B-Raf V600E mutant (unknown origin).
For series [3], the system named is Serine/threonine-protein kinase B-raf (Homo sapiens), P15056 [V600E]. In words: Ratio of IC50 for B-Raf V600E mutant in human Malme-3M cells to IC50 for full length B-Raf V600E mutant (unknown origin). It counts as cell-based.
The nature of series [4]: Permeability from apical to basolateral side in human Caco2 cells. The class given is ADME, cell-based. Particulars: Caco-2, read-out: permeability; call rule not given here.
A short description of series [5]: Inhibition of cytochrome P450 (unknown origin). It counts as ADME. Particulars: human.

In general, IC50 refers to the concentration that gives 50% inhibition.

T1 sequence (P15056 2-766 V600E limits assumed): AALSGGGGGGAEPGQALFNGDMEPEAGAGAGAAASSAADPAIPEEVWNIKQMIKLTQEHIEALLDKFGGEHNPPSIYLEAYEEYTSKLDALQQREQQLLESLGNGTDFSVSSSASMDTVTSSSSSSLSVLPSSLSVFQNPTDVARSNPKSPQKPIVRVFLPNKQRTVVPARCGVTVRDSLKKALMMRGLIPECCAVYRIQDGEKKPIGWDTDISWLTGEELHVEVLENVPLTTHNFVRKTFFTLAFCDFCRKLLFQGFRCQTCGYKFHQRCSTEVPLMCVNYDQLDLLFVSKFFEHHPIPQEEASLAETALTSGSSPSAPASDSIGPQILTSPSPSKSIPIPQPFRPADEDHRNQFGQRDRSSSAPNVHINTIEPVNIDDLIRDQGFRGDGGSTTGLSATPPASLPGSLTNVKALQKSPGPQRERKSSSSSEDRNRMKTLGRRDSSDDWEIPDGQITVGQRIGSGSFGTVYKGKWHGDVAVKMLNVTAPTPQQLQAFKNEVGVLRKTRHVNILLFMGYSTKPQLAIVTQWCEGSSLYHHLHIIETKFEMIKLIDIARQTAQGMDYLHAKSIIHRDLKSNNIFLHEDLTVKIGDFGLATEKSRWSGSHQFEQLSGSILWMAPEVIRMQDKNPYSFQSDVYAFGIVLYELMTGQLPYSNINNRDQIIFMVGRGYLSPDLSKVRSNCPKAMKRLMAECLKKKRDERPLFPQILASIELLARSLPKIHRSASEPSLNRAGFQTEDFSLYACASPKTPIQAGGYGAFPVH
Chain of Serine/threonine-protein kinase B-raf (Homo sapiens), P15056 [V600E] (P15056 whole entry V600E): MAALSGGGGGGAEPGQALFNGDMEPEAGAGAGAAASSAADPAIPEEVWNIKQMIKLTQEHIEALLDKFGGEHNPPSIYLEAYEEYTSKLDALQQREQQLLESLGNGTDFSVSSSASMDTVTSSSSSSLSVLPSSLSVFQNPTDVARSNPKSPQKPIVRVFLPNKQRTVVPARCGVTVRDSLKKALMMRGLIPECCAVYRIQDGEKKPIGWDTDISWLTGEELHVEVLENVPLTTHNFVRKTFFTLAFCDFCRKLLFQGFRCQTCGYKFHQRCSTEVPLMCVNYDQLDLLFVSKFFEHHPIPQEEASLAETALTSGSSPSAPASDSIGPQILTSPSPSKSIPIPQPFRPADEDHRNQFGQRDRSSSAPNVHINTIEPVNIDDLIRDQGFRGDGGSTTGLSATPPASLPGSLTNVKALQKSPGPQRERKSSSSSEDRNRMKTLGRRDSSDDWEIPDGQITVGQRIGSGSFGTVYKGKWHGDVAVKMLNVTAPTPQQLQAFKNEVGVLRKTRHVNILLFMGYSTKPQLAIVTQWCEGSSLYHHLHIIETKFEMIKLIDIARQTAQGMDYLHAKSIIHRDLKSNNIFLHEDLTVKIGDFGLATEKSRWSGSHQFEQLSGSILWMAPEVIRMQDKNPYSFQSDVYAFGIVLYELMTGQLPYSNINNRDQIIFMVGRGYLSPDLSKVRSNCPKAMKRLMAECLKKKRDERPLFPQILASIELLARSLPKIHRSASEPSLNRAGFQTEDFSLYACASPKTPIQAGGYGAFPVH

For the compound `CCCS(=O)(=O)Nc1ccc(F)c(C(=O)Nc2cnc3[nH]c(-c4ccncc4)nc3c2)c1F`, the IC50 came to 1.91 µM in series [1] and 0.0032 µM in series [2]. Besides, in series [3], the Ratio IC50 was found to be 596.
In the case of `CCCS(=O)(=O)Nc1ccc(F)c(C(=O)Nc2cnc3[nH]c(-c4ccccc4F)nc3c2)c1F`, the half-inhibitory concentration (IC50) in series [1] was found to be 0.167 µM; in series [2] it was 0.008 µM. For the same compound, the Ratio IC50 in series [3] stood at 21.
For the compound `CCCS(=O)(=O)Nc1ccc(F)c(C(=O)Nc2cnc3[nH]c(-c4ccc(F)cc4)cc3c2)c1F`, the IC50 amounted to 0.02 µM in series [1] and 0.0011 µM in series [2]. For the same compound, in series [3], the Ratio IC50 was 18.
In the same order, the values of `CCCS(=O)(=O)Nc1ccc(F)c(C(=O)Nc2cnc3[nH]c(-c4ccccc4Cl)nc3c2)c1F` are 0.557 µM, 0.027 µM and 21.
For the compound `CCCS(=O)(=O)Nc1ccc(F)c(C(=O)Nc2cnc3cc(-c4ccc(F)cc4)nn3c2)c1F`, the Ratio IC50 in series [3] is 4.9.
In the case of `CCCS(=O)(=O)Nc1ccc(F)c(C(=O)Nc2cnc3[nH]ncc3c2)c1F`, in series [4], the Papp A→B turned out to be 13 nm/s. In series [2], this compound showed a 50% inhibitory concentration (IC50) of 0.018 µM.
In the case of `CCCS(=O)(=O)Nc1ccc(F)c(C(=O)Nc2cnc3[nH]c(-c4ccccc4)cc3c2)c1F`, the half-inhibitory concentration (IC50) in series [1] came out at 0.032 µM; in series [2] it was 0.001 µM. In addition, the Papp A→B in series [4] came to 56 nm/s. In series [3], the Ratio IC50 is 32.
Turning to `CCCS(=O)(=O)Nc1ccc(F)c(C(=O)Nc2cnc3[nH]c(-c4cccnc4)nc3c2)c1F`, the IC50 in series [1] was 1.13 µM; in series [2], 0.003 µM. The Ratio IC50 in series [3] is 375.
Take `CCCS(=O)(=O)Nc1ccc(F)c(C(=O)Nc2cnc3[nH]c(-c4cccc(C(F)(F)F)c4)nc3c2)c1F`: the half-inhibitory concentration (IC50) in series [1] turned out to be 0.113 µM; in series [2] it was 0.001 µM. Moreover, the Ratio IC50 in series [3] was determined as 112.
As for `CCCS(=O)(=O)Nc1ccc(F)c(C(=O)Nc2cnc3[nH]c(-c4cccc(F)c4)nc3c2)c1F`, the figures for the IC50 in series [1] and in series [2] were 0.298 µM and 0.0031 µM, respectively. Besides, in series [3], the Ratio IC50 worked out at 97.
In the case of `CCCS(=O)(=O)Nc1ccc(F)c(C(=O)Nc2cnc3[nH]c(C)nc3c2)c1F`, the 50% inhibitory concentration (IC50) in series [1] stood at 1.71 µM; in series [2], 0.04 µM. In addition, in series [3], the Ratio IC50 came out at 43.
As to `CCCS(=O)(=O)Nc1ccc(F)c(C(=O)Nc2cnc3[nH]c(-c4ccc(Cl)cc4)cc3c2)c1F`, the results for the half-inhibitory concentration (IC50) in series [1] and in series [2] were 0.02 µM and 0.0024 µM, respectively. The Ratio IC50 in series [3] was determined as 8.4.
In the same order, the values of `CCCS(=O)(=O)Nc1ccc(F)c(C(=O)Nc2cnc3[nH]c(-c4ccc(F)c(F)c4)nc3c2)c1F` are 0.194 µM, 0.0034 µM and 57.
In the case of `CCCS(=O)(=O)Nc1ccc(F)c(C(=O)Nc2cnc3[nH]c(-c4ccc(C)cc4)nc3c2)c1F`, the concentration for half-maximal inhibition (IC50) in series [1] was 0.049 µM; in series [2], 0.0013 µM. The Papp A→B in series [4] amounted to 26 nm/s. In addition, in series [3], the Ratio IC50 came out at 38.
Consider `CCCS(=O)(=O)Nc1ccc(F)c(C(=O)Nc2cnc3[nH]c(-c4ccc(Cl)c(Cl)c4)nc3c2)c1F`, for which the figures for the half-maximal inhibitory concentration (IC50) in series [1] and in series [2] were 0.081 µM and 0.0015 µM, respectively. The Papp A→B in series [4] was found to be 20 nm/s. The Ratio IC50 in series [3] came out at 54. Also, in series [5], the “inhibition (INH)” value is recorded as “Not Active”.
Turning to `CCCS(=O)(=O)Nc1ccc(F)c(C(=O)Nc2cnc3[nH]c(-c4cccc(Br)c4)nc3c2)c1F`, the 50% inhibitory concentration (IC50) in series [1] turned out to be 0.172 µM; in series [2] it was 0.00076 µM. Further, the Ratio IC50 in series [3] is 226.
Consider `CCCS(=O)(=O)Nc1ccc(F)c(C(=O)Nc2cnc3[nH]ccc3c2)c1F`, for which the Papp A→B in series [4] was 73 nm/s. The compound further registered an IC50 in series [2] of 0.042 µM.
For `CCCS(=O)(=O)Nc1ccc(F)c(C(=O)Nc2cnc3[nH]c(C(C)(C)C)nc3c2)c1F`, the IC50 in series [1] is 1.56 µM; in series [2] it was 0.069 µM. The Ratio IC50 in series [3] was 23.
Regarding `CCCS(=O)(=O)Nc1ccc(F)c(C(=O)Nc2cnc3[nH]c(-c4ccc(F)cc4)nc3c2)c1F`, the 50% inhibitory concentration (IC50) worked out at 1.05 µM in series [1] and 0.0044 µM in series [2]. In addition, the Ratio IC50 in series [3] amounted to 240.
`CCCS(=O)(=O)Nc1ccc(F)c(C(=O)Nc2cnc3[nH]c(-c4ccccc4)nc3c2)c1F`: the IC50 in series [1] was determined as 0.132 µM; in series [2] it was 0.0016 µM.
For `CCCS(=O)(=O)Nc1ccc(F)c(C(=O)Nc2cnc3[nH]c(C4CCC4)nc3c2)c1F`, the figures for the half-inhibitory concentration (IC50) in series [1] and in series [2] were 3.33 µM and 0.031 µM, respectively. For the same compound, in series [3], the Ratio IC50 amounted to 107.
For `CCCS(=O)(=O)Nc1ccc(F)c(C(=O)Nc2cnc3[nH]c(-c4ccc(C(F)(F)F)cc4)nc3c2)c1F`, the figures for the concentration for half-maximal inhibition (IC50) in series [1] and in series [2] were 0.089 µM and 0.0014 µM, respectively. Also, the Papp A→B in series [4] was found to be 10 nm/s. The Ratio IC50 in series [3] stood at 62.
Turning to `CCCS(=O)(=O)Nc1ccc(F)c(C(=O)Nc2cnc3[nH]c(-c4ccc(Cl)cc4)nc3c2)c1F`, the IC50 was found to be 0.157 µM in series [1] and 0.0022 µM in series [2]. For the same compound, the Ratio IC50 in series [3] was 71.
In the same order, the values of `CCCS(=O)(=O)Nc1ccc(F)c(C(=O)Nc2cnc3[nH]c(-c4cccc(Cl)c4)nc3c2)c1F` are 0.068 µM, 0.0011 µM and 62.
Turning to `CCCS(=O)(=O)Nc1ccc(F)c(C(=O)Nc2cnc3[nH]c(-c4ccccc4Br)nc3c2)c1F`, the IC50 in series [1] was determined as 0.948 µM; in series [2], 0.027 µM. The Ratio IC50 in series [3] was 35.
As for `CCCS(=O)(=O)Nc1ccc(F)c(C(=O)Nc2cnc3[nH]c(C(C)C)nc3c2)c1F`, the values for the 50% inhibitory concentration (IC50) in series [1] and in series [2] were 1.73 µM and 0.06 µM, respectively. Further, in series [3], the Ratio IC50 came to 29.
`CCCS(=O)(=O)Nc1ccc(F)c(C(=O)Nc2cnc3cc(-c4ccc(Cl)cc4)nn3c2)c1F`: the IC50 in series [1] came to 0.09 µM; in series [2] it was 0.0082 µM. Further, in series [3], the Ratio IC50 amounted to 11.
`CCCS(=O)(=O)Nc1ccc(F)c(C(=O)Nc2cnc3[nH]c(-c4ccc(C#N)cc4)nc3c2)c1F`: the concentration for half-maximal inhibition (IC50) in series [1] was found to be 0.239 µM; in series [2], 0.0027 µM. Also, in series [3], the Ratio IC50 was 88.
In the case of `CCCS(=O)(=O)Nc1ccc(F)c(C(=O)Nc2cnc3[nH]c(CC)nc3c2)c1F`, the IC50 in series [1] came out at 1.77 µM; in series [2], 0.059 µM. In series [3], the Ratio IC50 is 30.
With `CCCS(=O)(=O)Nc1ccc(F)c(C(=O)Nc2cnc3[nH]c(-c4ccc(OC)cc4)nc3c2)c1F`, the 50% inhibitory concentration (IC50) is 0.137 µM in series [1] and 0.0011 µM in series [2]. For the same compound, the Ratio IC50 in series [3] was determined as 125.
Regarding `CCCS(=O)(=O)Nc1ccc(F)c(C(=O)Nc2cnc3ccnn3c2)c1F`, in series [4], the Papp A→B is 114 nm/s.
Consider `CCCS(=O)(=O)Nc1ccc(F)c(C(=O)Nc2cnc3[nH]c(-c4cccc(OC)c4)nc3c2)c1F`, for which the half-inhibitory concentration (IC50) in series [1] was 0.271 µM; in series [2], 0.0012 µM. The Ratio IC50 in series [3] amounted to 219.
Take `CCCS(=O)(=O)Nc1ccc(F)c(C(=O)Nc2cnc3[nH]cnc3c2)c1F`: in series [4], the Papp A→B is 6 nm/s. Moreover, in series [3], the Ratio IC50 amounted to 39.
On to `CCCS(=O)(=O)Nc1ccc(F)c(C(=O)Nc2cnc3[nH]c(-c4ccc(S(C)(=O)=O)cc4)nc3c2)c1F`, for which the IC50 in series [1] turned out to be 0.728 µM; in series [2], 0.0014 µM. The Ratio IC50 in series [3] came out at 527.
Regarding `CCCS(=O)(=O)Nc1ccc(F)c(C(=O)Nc2cnc3[nH]c(C4CCNCC4)nc3c2)c1F`, the IC50 in series [1] was more than 10 µM; in series [2], 0.107 µM. Moreover, the Ratio IC50 in series [3] was more than 93.
Consider `CCCS(=O)(=O)Nc1ccc(F)c(C(=O)Nc2cnc3cc(-c4ccccc4)nn3c2)c1F`, for which the Papp A→B in series [4] stood at 156 nm/s.
For `CCCS(=O)(=O)Nc1ccc(F)c(C(=O)Nc2cnc3[nH]c(-c4ccc(OC(F)(F)F)cc4)nc3c2)c1F`, the results for the 50% inhibitory concentration (IC50) in series [1] and in series [2] were 0.086 µM and 0.0025 µM, respectively. The Ratio IC50 in series [3] was determined as 34.
Consider `CCCS(=O)(=O)Nc1ccc(F)c(C(=O)Nc2cnc3[nH]c(-c4ccc(Br)cc4)nc3c2)c1F`, for which the IC50 in series [1] amounted to 0.061 µM; in series [2], 0.0022 µM. Also, in series [4], the Papp A→B was 13 nm/s. In addition, in series [3], the Ratio IC50 turned out to be 28.
For `CCCS(=O)(=O)Nc1ccc(F)c(C(=O)Nc2cnc3[nH]c(C4CCCNC4)nc3c2)c1F` (stereo not drawn), the 50% inhibitory concentration (IC50) in series [1] was more than 10 µM; in series [2] it was 0.167 µM. Moreover, in series [3], the Ratio IC50 is more than 60.
